Test results: patent US11752169B2, “Treatment of pain with polysulfated polysaccharides” (PARADIGM BIOPHARMACEUTICALS LTD., priority 2018, dated 2023)

Key:
[1] = system: IL-6 mRNA; assay: real-time RT-PCR for IL-6 mRNA in KOA osteocyte-like cultures; assay type: cell-based, human; details: PPS 1 μg/mL + rhTNFα 1 ng/mL, 48 h (FIG. 17)
Description: Cryopreserved cells from each donor (all at passage 0 or 1) were thawed and cultured for 10d in T75 cm^2 tissue culture flasks. Once confluent, cells were removed by collagenase/dispase digestion, washed by centrifugation, counted and adjusted to 5×10^5 cells/mL. Cells were then seeded into either 12-well tissue culture trays or into 8-well chamber slides, at 1×10^5 and 2×10^4 cells/well, respectively. After 24 h, media were replaced with osteogenic differentiation medium, consisting of αMEM, 5% v/v foetal calf serum (FCS), 1.8 mM potassium dihydrogen phosphate (KH2PO4), 100 μM Ascorbate-2-phosphate (As2P), 10 mM HEPES, 10^−8 M Dexamethasone and 0.2 mM L-Glutamine. During the differentiation process, samples were collected at days 3, 14 and 28 in Trizol reagent for total RNA preparation and gene expression analysis (see below). […]
(§1) Following three days of pre-treatment of osteocyte-like cultures with PPS and a further 48 h treatment period, total RNA was isolated for the purposes of analysing gene expression using real-time RT-PCR. While the quality of the RNA isolated from all cultures appeared to be high, as adjudged by Nanodrop micro-spectrophotometry showing the ratio of absorbance at 260 nm/280 nm generally being between 1.9 and 2.0, there was a consistent inability to generate complementary DNA (cDNA) from any samples exposed to 5 or 50 μg/mL PPS, except in one or two samples. […]

[2] = system: MMP13 mRNA; assay: real-time RT-PCR for MMP13 mRNA in KOA osteocyte-like cultures; assay type: cell-based, human; details: KOA donor osteocyte-like cultures, PPS 1 μg/mL + rhTNFα 1 ng/mL (FIG. 20)
Source text: FIG. 20. The effect of PPS treatment on basal and TNFα-induced MMP13 expression in human KOA osteocyte-like cultures. Real-time RT-PCR analysis of MMP13 mRNA relative to the expression of 18S rRNA. Data are means+SD of triplicate real-time RT-PCR reactions. A) KOA1-MMP13:18S mRNA expression; and B) KOA2-MMP13:185 mRNA expression.
Cryopreserved cells from each donor (all at passage 0 or 1) were thawed and cultured for 10d in T75 cm^2 tissue culture flasks. Once confluent, cells were removed by collagenase/dispase digestion, washed by centrifugation, counted and adjusted to 5×10^5 cells/mL. Cells were then seeded into either 12-well tissue culture trays or into 8-well chamber slides, at 1×10^5 and 2×10^4 cells/well, respectively. […]
as §1

[3] = volunteers injected subcutaneously with PPS; cited from earlier work

Question: With Sodium Pentosan Polysulfate [PPS] as the substance, how does the “effect of rhTNFα on IL-6 mRNA expression” value [1] read?
Answer: inhibited

Question: And the “rhTNFα-induced MMP13 mRNA expression” value [2]?
Answer: strongly inhibited

Question: What about the “plasma concentrations of PPS” value [3] of the same substance?
Answer: 1000 to 3000 ng/mL
